Data as given in patent publication US5340818A, “Methods and compositions for inhibiting tumor cell growth” (priority 1993, dated 1994).
pIC50: −log10 of the molar value. “And” between values parts separate entries of the source, which are not always exact repeats. Equal values may be shown once. Read-outs that look alike come from different tables or passages of the source.

What was measured:
Format in all cases: cell-based, human
HL-60 cells = assay: HL-60 cell growth inhibition, 72 h; settings: HL-60, 72 h; for IC50: Homo sapiens
Experimental: For growth inhibition studies, HL-60 cells (1.5×10^5 /ml) were grown in RPMI 1640 media (GIBCO, Grand Island, N.Y.) at 37° C. in humidified 5% CO2 for 72 h. Viable cells were determined using trypan blue exclusion and counted in a hemocytometer. The fractional inhibition for each compound concentration (0.0025-0.05 mg/ml in 0.1% dimethylsulfoxide) was analyzed with the median-effect plot using a computer program (Chou, T. -C and P. Talalay, Adv. Enzyme Regul., 22:27-55 (1984); Chou, J. and T. -C. thou, Dose-Effect analysis with microcomputers: Quantitation of ED50, LD50, synergism, antagonism, low-dose risk, receptor ligand binding and enzyme kinetics. A computer software disk for Apple II series or IBM-PC and manual. Elsevier Science Publishers, Elsevier-BioSoft, Cambridge, United Kingdom (1986)). The median-effect concentration (IC50) was determined automatically for three to five dose-effect levels. Cell growth in the absence of plant compound and in the presence of dimethylsulfoxide was used as a control. Dimethylsulfoxide alone inhibited cell growth 3.9%±1.5% during the 72 h incubation period. Those data with negative values represent activations.

[1] = system: DNA synthesis in HL-60 cells; assay: Inhibition of [3H-methyl]dThd incorporation into DNA of HL-60 cells; settings: for inhibition at 30 µg/mL: Homo sapiens, HL-60, at 0.03 mg/mL, read-out: % Inhibition of Precursor Incorporation, DNA; for inhibition of DNA synthesis, in words: HL-60, 0.03 mg/ml; for % Inhibition of Precursor Incorporation, DNA: at 0.03 mg/mL
Experimental: (§1) For the precursor incorporation studies, each compound (in 0.3% dimethylsulfoxide) was preincubated with HL-60 cells (a human promyelocytic leukemic cell line) 2.2×10^6 /ml, for 15 min prior to the addition of the labeled precursor (obtained from ICN Radiochemicals, Irvine, Calif.) and then incubated for 30 min. The precursors used for incorporation into DNA, RNA and protein were [^3 H-methyl]dThd (1 μCi, 0.15 nmole/ml), [5-^3 H]Cyd (5 μCi, 0.23 nmol/ml), and [2,3,4,5-^3 H]L-Leu (0.5 μCi, 0.004 nmol/ml), respectively. Incorporation of radioactivity in the absence of a plant compound and in the presence of dimethylsulfoxide was used as a control.
Human promyelocytic cells (HL-60) were incubated with [^3 H-methyl]dTHDin the presence and absence of a plant alkaloid.

[2] = system: protein synthesis in HL-60 cells; assay: Inhibition of [2,3,4,5-3H]L-Leu incorporation into protein of HL-60 cells; settings: Homo sapiens
Experimental: as §1, with “control. The control values for incorporation into DNA, RNA and protein were 8,500, 5,600 and 1,700 cpm/10^6 cells, respectively. The incubation conditions and the procedures for isolating DNA, RNA and protein fractions have been previously described (Chou, T. -C., et al., Cancer Res., 43:3074-3079 (1983)) .” for “control.”
(§2) HL-60 cells were incubated with [5-^3 H]Cyd or [2,3,4,5-^3 H]L-Leu in the presence and absence of alkaloids (0.03 mg/ml) in order to find the effects of the alkaloid on the incorporation of labeled precursors into RNA or protein. […] Over 90% of RNA and protein biosynthesis were inhibited by compounds 11, 16, 17, 22, 28, 29and 30 (Table 1). […] In most cases, the amount required to inhibit precursor incorporation into DNA was less than that to inhibit precursor incorporation into RNA or protein (i.e. DNA synthesis is inhibited most potently).

[3] = system: RNA synthesis in HL-60 cells; assay: Inhibition of [5-3H]Cyd incorporation into RNA of HL-60 cells; settings: Homo sapiens, HL-60, 0.5 h
Experimental: as §1, with “control. The control values for incorporation into DNA, RNA and protein were 8,500, 5,600 and 1,700 cpm/10^6 cells, respectively. The incubation conditions and the procedures for isolating DNA, RNA and protein fractions have been previously described (Chou, T. -C., et al., Cancer Res., 43:3074-3079 (1983)) .” for “control.”
as §2

[4] = read-out: Cell Growth Inhibition, IC50
[5] = HL-60, at 0.03 mg/mL, read-out: % Inhibition of Precursor Incorporation, Protein
[6] = at 0.03 mg/mL, read-out: % Inhibition of Precursor Incorporation, RNA
[7] = HL-60, read-out: % Inhibition of Precursor Incorporation, Protein, at 0.03 mg/mL
[8] = read-out: % Inhibition of Precursor Incorporation, RNA, at 0.03 mg/mL

| IC50 (HL-60 cells; [4]) | Cell Growth Inhibition, IC50 (HL-60 cells) [µg/mL] | pIC50 (HL-60 cells; [4]) | Compound | inhibition at 30 µg/mL [1] [%] | inhibition at 30 µg/mL [2, 5] [%] | inhibition at 30 µg/mL [3, 6] [%] | inhibition of DNA synthesis, in words [1] | cell growth inhibition, in words (HL-60 cells) | inhibition at 30 µg/mL [2, 7] [%] | inhibition at 30 µg/mL [3, 8] [%] | % Inhibition of Precursor Incorporation, DNA [1] [%] |
| --- | --- | --- | --- | --- | --- | --- | --- | --- | --- | --- | --- |
| > 40 µg/mL and > 127 µM | – | – | COc1cc(O)c2c(=O)c3ccc(OC)c(OC)c3n(C)c2c1 | 34.8 | 28.3 | 95 | – | – | – | – | – |
| 20.6 µg/mL and 90.7 µM | – | – | O=c1c2ccccc2[nH]c2cc(O)cc(O)c12 [Compound 4, 1,3-Dihydroxy-acridone] | 76.7 | 62.8 | 50.6 | no significant activity | – | – | – | – |
| > 40 µg/mL and > 129 µM | – | – | CC(=O)Oc1cc(OC(C)=O)c2c(=O)c3ccccc3[nH]c2c1 [Compound 5, 1,3-O,O-Diacetyl-acridone] | 39.7 | 26.9 | 24.9 | no significant activity | – | – | – | – |
| > 40 µg/mL and > 123 µM | – | – | CC(=O)Oc1cc(OC(C)=O)c2c(=O)c3ccccc3n(C)c2c1 [Compound 6] | 23 | -12.8 | 2.7 | – | – | – | – | – |
| > 40 µg/mL and > 157 µM | – | – | COc1cc(O)c2c(=O)c3ccccc3n(C)c2c1 [Compound 7, 1-Hydroxy-3-methoxy N-methyl acridone] | 48.4 | 25.2 | 39.5 | – | – | – | – | – |
| > 40 µg/mL and > 157 µM | – | – | COc1cc(O)cc2c1c(=O)c1ccccc1n2C [Compound 8, 1-Methoxy-3-Hydroxy N-methyl acridone] | 53.3 | 25.7 | 51.2 | – | – | – | – | – |
| 30.5 µg/mL and 103 µM | – | – | COc1cc(OC(C)=O)cc2c1c(=O)c1ccccc1n2C [Compound 9, 3-O-Acetyl-1-methoxy-R-methyl acridone] | 71.1 | 30 | 61.6 | – | – | – | – | – |
| 9.2 µg/mL and 34.2 µM | – | – | COc1cc(OC)c2c(=O)c3ccccc3n(C)c2c1 [Compound 10, 1,3-Dimethoxy-N-methyl acridone] | > 90 | 64.4 | 65.8 | excellent inhibitory effect | – | – | – | – |
| 8.2 µg/mL and 26.5 µM | – | – | CC(C)=CCc1c(O)cc(O)c2c(=O)c3ccccc3n(C)c12 [Compound 11, Glycocitrine-II] | 99.5 | 95.3 | 97.1 | potent inhibitor | – | – | – | – |
| > 40 µg/mL and > 124 µM | – | – | COc1cc(O)c2c(=O)c3ccccc3n(C)c2c1CC=C(C)C [Compound 12, 3-O-methyl-glycocitrine-II] | 61.8 | 50.3 | 53.8 | only moderate inhibitory activity | – | – | – | – |
| 1.4 µg/mL and 4.1 µM | – | – | COc1cc(O)c2c(=O)c3cccc(O)c3n(C)c2c1CC=C(C)C [Compound 13, Glycocitrine-I] | 97.5 | 41.1 | 43.9 | – | significant activity against leukemic cells in vitro | – | – | – |
| 5.6 µg/mL and 13.2 µM | – | – | COc1cc(OC(C)=O)c2c(=O)c3cccc(OC(C)=O)c3n(C)c2c1CC=C(C)C [Compound 14, OO-Diacetyl-glycocitrine-I] | 94.7 | 89.8 | 63.8 | – | significant activity against leukemic cells in vitro | – | – | – |
| 13.3 µg/mL and 40.4 µM | – | – | COc1cc(OC)c2c(=O)c3cccc(OC)c3n(C)c2c1OC [Compound 18, 1,3,4,5-Tetra-methoxy-N-methyl acridone] | 91.5 | 71.8 | 57 | – | – | – | – | – |
| > 40 µg/mL and > 133 µM | – | – | COc1ccc2c(=O)c3c(O)cc(O)cc3n(C)c2c1OC [Compound 19, Grandisine-II] | 76.5 | 27.3 | 96 | – | – | – | – | – |
| 38.7 µg/mL and 113 µM | – | – | COc1ccc2c(=O)c3c(O)cc(OC(C)=O)cc3n(C)c2c1OC [Compound 20, O-Acetyl-grandisine-II] | 24.4 | -5.6 | 77 | – | – | – | – | – |
| > 40 µg/mL and > 133 µM | – | – | COc1cc(O)c2c(=O)c3ccc(OC)c(O)c3n(C)c2c1 [Compound 21, Grandisine-I] | 71.7 | 22.8 | 69.5 | – | – | – | – | – |
| – | > 40 | < 3.88 | COc1cc(O)c2c(=O)c3ccc(O)c(OC)c3n(C)c2c1 [Compound 22, Citpressine-I] | – | – | – | – | – | – | – | 65.0 |
| 22 µg/mL and 66.8 µM | – | – | COc1cc(OC)c2c(=O)c3ccc(OC)c(OC)c3n(C)c2c1 [Compound 24, 1-O-Methyl-citpressine-II] | 93.1 | 75.6 | 67.3 | – | – | – | – | 93 |
| 3.6 µg/mL and 10.1 µM | – | – | COc1c(O)ccc2c(=O)c3c(O)c(CC=C(C)C)c(O)cc3n(C)c12 [Compound 25, Buntanine] | 96.6 | 40.1 | 29.8 | – | – | – | – | – |
| 36 µg/mL and 94.5 µM | – | – | COc1c(O)ccc2c(=O)c3c(O)cc(O)c(CC=C(C)C)c3n(C)c12 [Compound 27, Prenylcitpressine] | 52.4 | -15.7 | 21.1 | – | – | – | – | – |
| 2.2 µg/mL and 5 µM | – | – | COc1c(OC(C)=O)ccc2c(=O)c3c(O)cc(OC(C)=O)c(CC=C(C)C)c3n(C)c12 [Compound 28, 3,6-O,O-Diacetyl-prenylcitpressine] | 96.8 | 89.6 | 96.1 | – | significant activity against leukemic cells in vitro | – | – | – |

| Compound | IC50 (HL-60 cells; [4]) | Cell Growth Inhibition, IC50 (HL-60 cells) [µg/mL] | pIC50 (HL-60 cells; [4]) | inhibition at 30 µg/mL [1] [%] | inhibition at 30 µg/mL [2, 5] [%] | inhibition at 30 µg/mL [3, 6] [%] | inhibition of DNA synthesis, in words [1] | cell growth inhibition, in words (HL-60 cells) | inhibition at 30 µg/mL [2, 7] [%] | inhibition at 30 µg/mL [3, 8] [%] | % Inhibition of Precursor Incorporation, DNA [1] [%] |
| --- | --- | --- | --- | --- | --- | --- | --- | --- | --- | --- | --- |
| COc1c(O)cc(O)c2c(=O)c3cccc(O)c3n(C)c12 [Compound 15, Citrusinine-II] | 17 µg/mL and 59.2 µM | – | – | 88.5 | – | – | – | – | 54.3 | 91.7 | – |
| COc1cc(O)c2c(=O)c3cccc(O)c3n(C)c2c1OC [Compound 16, Citrusinine-I] | 2.6 µg/mL and 8.6 µM | – | – | 97 | – | – | – | significant activity against leukemic cells in vitro | 87 | 96.5 | – |
| CC(C)=CCc1c(O)c(CC=C(C)C)c2c(c1O)c(=O)c1cccc(O)c1n2C [Compound 26, N-methyl-atalaphylline] | 5.4 µg/mL and 13.7 µM | – | – | 99.6 | – | – | – | significant activity against leukemic cells in vitro | 44.3 | 28.2 | – |
